The target of this experiment is T1, Recombinant human Met (c-Met) (Homo sapiens, UniProt P08581).
T1 construct: purchased Invitrogen PV3143
The experiment in a line: Inhibition of c-Met kinase activity using Transcreener FP assay. The note with it: Poly E4Y substrate, 28° C. 45 min, read-out: IC50, inhibition of c-Met kinase activity. It is filed as biochemical. On the procedure: Compound dilution: dilute test articles to 5 folds of the testing concentration using 20% DMSO.
The mixture is kept on ice until use;
Prepare ATP standard curve stock as following:
3. Enzymatic reaction: in 96-well reaction plate
Add 5 μL of test article or 5 μL of 20% DMSO or 5 μL of 500 mM EDTA;
Add 10 μL of Enzyme/Substrate stock;
Add 10 μL of ATP Diluent to begin the enzyme reaction and mix on plate shaker;
Add 5 μL of 20% DMSO, 10 μL of assay buffer and 10 μL of ATP standard curve stock into standard curve wells;
Gently shake at 28° C. for 45 min.
4. Stop reaction and detect ADP
Prepare Detection Mix: According to the procedures described in the Assay kit, Alexa633 tracer, ADP antibody and stop & detect buffer were added into H2O and mixed thoroughly. Prepare Tracer Only control: According to the procedures described in the Assay kit, ADP Alexa633 tracer and stop & detect buffer were added to H2O and mixed throughly.
Prepare No Tracer control: According to the procedures described in the Assay kit, the stop & detect buffer was diluted with H2O;
Add 25 μL of detection mix, Tracer Only control and No Tracer control into corresponding wells, respectively;
The reaction plate was gently shaken at 28° C. for 1 h;
Florescence polarization (FP) was measured on TECAN F500. Excitation wavelength: 610 nm, Emission wavelength: 670 nm.
Compound well [ADP] represents the ADP concentration of the compound well. Positive control well [ADP] represents the ADP concentration of the 20% DMSO well. Conversion of mP value to ADP concentration is based on the formula which is determined by standard curve.
IC50: calculated using XL-Fit 2.0 software.

We go through 70 compounds from patent US11896592B2, “Certain triazolopyridines and triazolopyrazines, compositions thereof and methods of use therefor” (Hutchison Medipharma Limited, priority 2009, dated 2024).

T1 sequence (P08581 956-1390 limits assumed): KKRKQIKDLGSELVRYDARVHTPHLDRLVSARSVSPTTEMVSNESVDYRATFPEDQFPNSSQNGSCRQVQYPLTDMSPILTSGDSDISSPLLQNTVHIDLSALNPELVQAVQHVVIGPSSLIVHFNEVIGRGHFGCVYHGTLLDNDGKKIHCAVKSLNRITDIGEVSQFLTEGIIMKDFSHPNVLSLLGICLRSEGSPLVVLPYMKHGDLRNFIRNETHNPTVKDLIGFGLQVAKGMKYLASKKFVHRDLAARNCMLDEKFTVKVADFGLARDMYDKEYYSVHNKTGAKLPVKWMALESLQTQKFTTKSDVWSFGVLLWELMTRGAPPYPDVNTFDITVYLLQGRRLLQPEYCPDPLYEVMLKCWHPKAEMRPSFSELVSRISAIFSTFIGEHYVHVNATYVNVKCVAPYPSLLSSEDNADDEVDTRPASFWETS

Turning to `CNCCCn1cc(-c2ccc3nnn(Cc4ccc5ncccc5c4)c3n2)cn1` [Compound 92], the IC50 lay in the range of 100 to 1000 nM. With `COCCn1cc(-c2ccc3nnn(Cc4ccc5ncccc5c4)c3n2)cn1` [Compound 93] the figure was 100 to 1000 nM; with `c1cnc2ccc(Cn3nnc4ccc(-c5cnn(C6CCNCC6)c5)nc43)cc2c1` [Compound 94], 100 to 1000 nM; with `CCn1cc(-c2ccc3nnn(Cc4ccc5ncccc5c4)c3n2)cn1` [Compound 95], 1 to 100 nM. Then `COCCOc1cccc(-c2ccc3nnn(Cc4ccc5ncccc5c4)c3n2)c1` [Compound 96], with 100 to 1000 nM; and `COCCOc1ccc(-c2ccc3nnn(Cc4ccc5ncccc5c4)c3n2)cc1` [Compound 97], with 1 to 100 nM; and `CC(=O)OCCn1cc(-c2ccc3nnn(Cc4ccc5ncccc5c4)c3n2)cn1` [Compound 98], with 100 to 1000 nM.

Consider `COCCOc1ccc(-c2ccc3nnn(Cc4ccc5ncccc5c4)c3n2)cn1` [Compound 99], for which the IC50 lay within 100 to 1000 nM.

Regarding `CC(O)Cn1cc(-c2ccc3nnn(Cc4ccc5ncccc5c4)c3n2)cn1` (stereo not shown) [Compound 100], the IC50 was in the range of 100 to 1000 nM.

As to `CN1CCC(n2cc(-c3ccc4nnn(Cc5ccc6ncccc6c5)c4n3)cn2)CC1` [Compound 101], the IC50 fell in the range of 100 to 1000 nM. With `N#Cc1ccc(-c2ccc3nnn(Cc4ccc5ncccc5c4)c3n2)s1` [Compound 102] the figure was 1 to 100 nM; with `N#Cc1ccc(-c2ccc3nnn(Cc4ccc5ncccc5c4)c3n2)cn1` [Compound 103], 100 to 1000 nM; with `OCc1ccc(-c2ccc3nnn(Cc4ccc5ncccc5c4)c3n2)s1` [Compound 104], 1 to 100 nM. With `CN(C)Cc1ccc(-c2ccc3nnn(Cc4ccc5ncccc5c4)c3n2)s1` [Compound 105] the figure was 100 to 1000 nM; with `COCCOc1cc(-c2ccc3nnn(Cc4ccc5ncccc5c4)c3n2)ccn1` [Compound 107], 100 to 1000 nM.

Consider `Cn1cnc(-c2ccc3nnn(Cc4ccc5ncccc5c4)c3n2)c1` [Compound 108], for which the IC50 lay in the range of 100 to 1000 nM. With `OCCn1cnc(-c2ccc3nnn(Cc4ccc5ncccc5c4)c3n2)c1` [Compound 109] the figure was 100 to 1000 nM.

As to `COCCNc1cc(-c2ccc3nnn(Cc4ccc5ncccc5c4)c3n2)ccn1` [Compound 110], the IC50 lay in the range of 100 to 1000 nM. For the compound `COCCn1cc(-c2ccc3nnn(Cc4c[nH]c5ncccc45)c3n2)cn1` [Compound 111], the IC50 was 1 to 100 nM. Consider `COc1cccc(-c2ccc3nnn(Cc4c[nH]c5ncccc45)c3n2)c1` [Compound 112], for which the IC50 lay within 1 to 100 nM. In the case of `CC(c1c[nH]c2ncccc12)n1nnc2ccc(-c3cnn(CCO)c3)nc21` (stereo not shown) [Compound 113], the IC50 was 1 to 100 nM. On to `CC(=O)Nc1ccc(-c2ccc3nnn(Cc4c[nH]c5ncccc45)c3n2)cn1` [Compound 115], for which the IC50 fell in the range of 1 to 100 nM. With `c1cnc2[nH]cc(Cn3nnc4ccc(-c5cnn(C6CCNCC6)c5)nc43)c2c1` [Compound 116] the figure was 100 to 1000 nM. Then `N#CCn1cc(-c2ccc3nnn(Cc4ccc5ncccc5c4)c3n2)cn1` [Compound 117], with 1 to 100 nM.

With `c1cnc2ccc(Cn3nnc4ccc(-c5cnn(C6CCOCC6)c5)nc43)cc2c1` [Compound 118], the IC50 was 100 to 1000 nM.

`OC1CCCC1n1cc(-c2ccc3nnn(Cc4ccc5ncccc5c4)c3n2)cn1` (stereo not shown) [Compound 119]: the IC50 lay within 100 to 1000 nM. With `Cn1cc(-c2ccc3nnn(Cc4ccc5ncnn5c4)c3n2)cn1` [Compound 120] the figure was 100 to 1000 nM; with `FC(F)(F)Cn1cc(-c2ccc3nnn(Cc4ccc5ncnn5c4)c3n2)cn1` [Compound 121], 100 to 1000 nM. With `Cn1cc(-c2ccc3nnn(C4(c5ccc6ncccc6c5)CC4)c3n2)cn1` [Compound 122] the figure was 100 to 1000 nM; with `OCCn1cc(-c2ccc3nnn(C4(c5ccc6ncccc6c5)CC4)c3n2)cn1` [Compound 123], 100 to 1000 nM.

For the compound `OCCn1cc(-c2ccc3nnn(Cc4ccc5ncnn5c4)c3n2)cn1` [Compound 126], the IC50 lay within 100 to 1000 nM. With `Cn1cc(-c2ccc3nnn(Cc4cc5cccnc5cc4F)c3n2)cn1` [Compound 127] the figure was 1 to 100 nM. Then `OCCn1cc(-c2ccc3nnn(Cc4cc5cccnc5cc4F)c3n2)cn1` [Compound 128], with 1 to 100 nM; and `Cn1cc(-c2ccc3nnn(Cc4ccc5ncccc5c4F)c3n2)cn1` [Compound 129], with 1 to 100 nM. Then `OCCn1cc(-c2ccc3nnn(Cc4ccc5ncccc5c4F)c3n2)cn1` [Compound 130], with 1 to 100 nM; and `Cn1cc(-c2ccc3nnn(Cc4cc5[nH]ncc5s4)c3n2)cn1` [Compound 132], with 1 to 100 nM. Take `Cn1cc(-c2ccc3nnn(Cc4ccc5nccn5c4)c3n2)cn1` [Compound 133]: the IC50 was 1 to 100 nM.

Consider `OCCn1cc(-c2ccc3nnn(Cc4ccc5nccn5c4)c3n2)cn1` [Compound 134], for which the IC50 was in the range of 1 to 100 nM. With `CCn1cc(-c2ccc3nnn(Cc4ccc5nccn5c4)c3n2)cn1` [Compound 135] the figure was 1 to 100 nM. Regarding `CC(C)n1cc(-c2ccc3nnn(Cc4ccc5nccn5c4)c3n2)cn1` [Compound 136], the IC50 was 1 to 100 nM. For the compound `CCn1cc(-c2ccc3nnn(Cc4n[nH]c5ncccc45)c3n2)cn1` [Compound 137], the IC50 fell in the range of 1 to 100 nM.

Regarding `OCCn1cc(-c2ccc3nnn(Cc4n[nH]c5ncccc45)c3n2)cn1` [Compound 138], the IC50 was in the range of 100 to 1000 nM. Consider `CCCn1cc(-c2ccc3nnn(Cc4ccc5nccn5c4)c3n2)cn1` [Compound 140], for which the IC50 was in the range of 1 to 100 nM. For the compound `FC(F)(F)Cn1cc(-c2ccc3nnn(Cc4ccc5nccn5c4)c3n2)cn1` [Compound 141], the IC50 fell in the range of 1 to 100 nM.

On to `Cn1cc(-c2ccc3nnn(Cc4ccc5ncsc5n4)c3n2)cn1` [Compound 142], for which the IC50 is 100 to 1000 nM.

Take `c1cn2cc(Cn3nnc4ccc(-c5cnn(C6CCOCC6)c5)nc43)ccc2n1` [Compound 143]: the IC50 was 100 to 1000 nM.

As to `CC(C)n1cc(-c2ccc3nnn(Cc4ccc5ncccc5c4)c3n2)cn1` [Compound 144], the 50% inhibitory concentration (IC50) fell in the range of 1 to 100 nM.

Regarding `c1cnc2ccc(Cn3nnc4ccc(-c5cn[nH]c5)nc43)cc2c1` [Compound 145], the IC50 fell in the range of 1 to 100 nM. Then `CCCn1cc(-c2ccc3nnn(Cc4ccc5ncccc5c4)c3n2)cn1` [Compound 146], with 1 to 100 nM.

As to `FC(F)(F)Cn1cc(-c2ccc3nnn(Cc4ccc5ncccc5c4)c3n2)cn1` [Compound 147], the IC50 is 1 to 100 nM.

For `CS(=O)(=O)n1cc(-c2ccc3nnn(Cc4ccc5ncccc5c4)c3n2)cn1` [Compound 150], the IC50 was 1 to 100 nM. Then `Cn1ccc(Nc2cnc3nnn(Cc4ccc5ncccc5c4)c3n2)n1` [Compound 152, N-(1-methyl-1H-pyrazol-3-yl)-1-(quinolin-6-ylmethyl)-1H-[1,2,3]triazolo-[4,5-b]pyrazin-6-amine], with 1 to 100 nM; and `Clc1ccnc(Nc2cnc3nnn(Cc4ccc5ncccc5c4)c3n2)c1` [Compound 153], with 1 to 100 nM; and `Cc1cccc(N(C)c2cnc3nnn(Cc4ccc5ncccc5c4)c3n2)n1` [Compound 154], with 100 to 1000 nM. Then `Cc1ccc(Nc2cnc3nnn(Cc4ccc5ncccc5c4)c3n2)cn1` [Compound 155], with 1 to 100 nM; and `COc1cncc(Nc2cnc3nnn(Cc4ccc5ncccc5c4)c3n2)c1` [Compound 156], with 1 to 100 nM. Then `Cc1cccc(Nc2cnc3nnn(Cc4ccc5ncccc5c4)c3n2)n1` [Compound 157], with 1 to 100 nM. As for `Cc1cncc(Nc2cnc3nnn(Cc4ccc5ncccc5c4)c3n2)c1` [Compound 158], the IC50 lay within 1 to 100 nM. With `Cc1cc(Nc2cnc3nnn(Cc4ccc5ncccc5c4)c3n2)on1` [Compound 160] the figure was 1 to 100 nM.

As to `c1cnc2ccc(Cn3nnc4ncc(Nc5ccsc5)nc43)cc2c1` [Compound 161], the IC50 fell in the range of 1 to 100 nM.

Take `COc1ccc(Nc2cnc3nnn(Cc4ccc5ncccc5c4)c3n2)cn1` [Compound 162]: the IC50 lay in the range of 1 to 100 nM.

Regarding `Cc1cc(Nc2cnc3nnn(Cc4ccc5ncccc5c4)c3n2)ccn1` [Compound 163], the half-maximal inhibitory concentration (IC50) lay in the range of 1 to 100 nM. With `Clc1ccc(Nc2cnc3nnn(Cc4ccc5ncccc5c4)c3n2)nc1` [Compound 164] the figure was 1 to 100 nM; with `c1cnc2ccc(Cn3nnc4ncc(Nc5ccc(N6CCOCC6)cn5)nc43)cc2c1` [Compound 165], 1 to 100 nM. Then `c1cc(Nc2cnc3nnn(Cc4ccc5ncccc5c4)c3n2)nc(N2CCOCC2)c1` [Compound 166], with 1 to 100 nM.

With `c1ccc(Nc2cnc3nnn(Cc4ccc5ncccc5c4)c3n2)nc1` [Compound 168], the IC50 was 1 to 100 nM.

Turning to `c1cnc2ccc(Cn3nnc4ncc(Nc5ccncc5)nc43)cc2c1` [Compound 169], the IC50 lay within 1 to 100 nM. With `Clc1cccc(Nc2ccc3nnn(Cc4cc5cnccc5s4)c3n2)c1` [Compound 170] the figure was 100 to 1000 nM; with `Cc1csc(Nc2cnc3nnn(Cc4ccc5ncccc5c4)c3n2)n1` [Compound 172], 1 to 100 nM; with `Cn1cc(Nc2cnc3nnn(Cc4ccc5ncccc5c4)c3n2)cn1` [Compound 173], 1 to 100 nM.

By IC50 is commonly meant the midpoint of a concentration-inhibition curve.
